Entries after “also recorded” stand apart in the source; their conditions may differ. Like-named read-outs stand apart in the source and are kept apart here.
Columns and labels:
[1] = tested on: PLC5 cells; experiment: MTT assay for cell growth inhibition in PLC5 cells; format: cell-based
Experimental: These compounds were analyzed by MTT assay for cell growth inhibition in the PLC5 cells.
Next, we changed the pyridine to a quinoline ring and amide linker to generate compounds 12-25. These compounds were also analyzed by MTT assay for cell growth inhibition in the PLC5 cells.

[2] = target: T1, Raf-1 (Homo sapiens, UniProt P04049); experiment: Raf-1 kinase activity in lysates of treated cells; format: cell-based
T1 construct: Raf-1 immunoprecipitated from PLC5 cell extracts was incubated with MEK recombinant protein; endogenous in cells; host or cells: PLC5
From the text: (§1) The RediPlate 96 EnzChek® Tyrosine Phosphatase Assay Kit (R-22067) was used for SHP-1 activity assay (Molecular Probes, Carlsbad, Calif.). The Raf-1 kinase cascade assay kit (Upstate-Millipore, Billerica, Mass.) was used to examine the Raf-1 kinase activity. The JAK2 kinase activity kit was purchased from Reaction Biology Corp. (Malvern, Pa.).

[3] = tested on: phospho-STAT3 (Tyr705); experiment: Phospho-STAT3 (Tyr705) sandwich ELISA; format: cell-based
Experimental: A PathScan Phospho-Stat3 (Tyr705) Sandwich ELISA Kit was used for the detection of phospho-STAT3 (Cell Signaling, Danvers, Mass.). Cells were pre-treated with IL-6 1 ng/ml and then exposed with various compounds at 10 μM for 24 h. After incubation with cell lysates, both non-phospho- and phospho-Stat3 proteins are captured by the coated antibody. The expression of phospho-STAT3 was measured at 450 nm absorbance.
The decreased level of P-STAT3 induced by these derivatives was correlated with cell toxicity. In the other words, these derivatives induced cell death in part through inhibition of STAT3.
We also assayed the activation status of p-STAT3 by STAT3 ELISA. […] SC-1 or sorafenib-treated cell extracts were incubated with antibody against phosphorylated STAT3 at Y705. […] To evaluate the transcriptional activity, STAT3-binding region was cloned into Luc reporter. […] The firefly luciferase activity was evaluated and normalized by Renilla luciferase.
p-STAT3 activity: PLC5 cells treated with SC derivatives were collected in RIPA buffer and analyzed in p-STAT3 ELISA kit. The assay protocol follows the manufacturer.

[4] = tested on: p-STAT3, cyclin D1, survivin, Mc1-1; experiment: Western blot of STAT3-related proteins in HCC cells; format: cell-based; conditions: HCC cells, 24 h
Experimental: Cells were treated with various compounds at 5 and 10 μM for 24 h. Cell lysates were analyzed by western blot.
HCC cells treated with SC-43 (10 μM for 24 h) were collected with RIPA lysis buffer. Antibodies for immunoblotting such as cyclin D1 was purchased from Santa Cruz Biotechnology. Other antibodies such as survivin, phospho-STAT3 (Tyr705), STAT3, Mc1-1, SOCS1, and SOCS3 were from Cell Signaling.

[5] = target: T2, JAK2 (Homo sapiens, UniProt O60674); experiment: JAK2 kinase activity; format: cell-based; conditions: PLC5 cells, 10 μM, 24 h
T2 construct: endogenous in cells; host or cells: PLC5
From the text: as §1

[6] = tested on: Huh-7 tumors
Experimental: Male NCr athymic nude mice (5-7 weeks of age) were obtained from the National Laboratory Animal Center (Taipei, Taiwan). All experimental procedures using these mice were performed in accordance with protocols approved by National Taiwan University. […] Controls received vehicle (Chen K F et al. Cancer Res. 2008; 68:6698-6707).

[7] = tested on: HCC cells; experiment: cells
From the text: Points, mean; bars, SD (n=6).
Points, mean; bars, SD ([…]). […] The N-SH2 domain is in orange, the C-SH2 domain is in marine, the PTP domain is in hot pink, and the linkers between them are in gray. […] ELISA, enzyme-linked immunosorbent assay.

[8] = tested on: HCC cells; experiment: Apoptosis analysis by flow cytometry (sub-G1); format: cell-based; conditions: for apoptosis (sub-G1): HCC cells, 24 h
Experimental: Apoptotic cells were measured by flow cytometry (sub-G1). After treatment with various compounds, cells were trypsinized, collected by centrifugation and resuspended in PBS. After centrifugation, the cells were washed in PBS and resuspended in […] (PI) staining solution. Specimens were incubated in the dark for 30 min at 37° C. and then analyzed with an EPICS Profile II flow cytometer (Coulter Corp., Hialeah, Fla.). All experiments were performed in triplicate
Collected cells were fixed in 75% Ethanol and stained with 20 ug/ml Propidium Iodide (PI). Sub-G1 analysis was performed by flow-cytometry. […] Points, mean; bars, SD (n=6).

[9] = tested on: STAT3; experiment: STAT3 luciferase reporter assay; format: cell-based; conditions: 10 μM, 24 h
Experimental: Cells were seeded in 96-well plate and pre-treated with IL-6 at the dose […] for 30 min. The STAT3 reporter kit was purchased from SABiosciences (Frederick, Md.).
STAT3 reporter assay: PLC5 cells were seeded in a 96-well plate. Cells were pretransfected with STAT3 reporter construct for 24 h and treated with derivatives for another 24 h. The STAT3 Reporter Kit was purchased from SABiosciences.

[10] = tested on: MDAMB231, MDAMB468, MCF-7, HL-60, KG-1 and ML-1; experiment: Anti-proliferation in breast cancer and leukemia cell lines; format: cell-based; conditions: MDAMB231, MDAMB468, MCF-7, HL-60, KG-1, ML-1
Experimental: The Huh-7 HCC cell line was obtained from the Health Science Research Resources Bank (Osaka, Japan; JCRB0403). The PLC/PRF/5 (PLC5), Sk-Hep-1, and Hep3B cell lines were obtained from American Type Culture Collection (Manassas, Va.). The cells were maintained in DMEM supplemented with 10% FBS, 100 units/mL penicillin G, 100 μg/mL streptomycin sulfate and 25 μg/mL amphotericin B in a 37° C. humidified incubator in an atmosphere of 5% CO2 in air. Other cell lines, including breast cancer cells e.g. MDAMB231, MDAMB468, MCF-7, and leukemia cancer cells e.g. HL-60, KG-1 and ML-1 are also provided for the assays described below.
We also examed the effects of SC-1 and SC-43 in other cancer cell lines, including breast cancer cell lines e.g. MDAMB231, MDAMB468, MCF-7, and leukemia cancer cell lines e.g. HL-60, KG-1 and ML-1.

[11] = tested on: p-VEGFR2 (Tyr1175)
[12] = target: T3, SHP-1 (Homo sapiens, UniProt P29350); experiment: Phosphatase activity of SHP-1 immunoprecipitated from PLC5 cells, incubated with compound in vitro; format: biochemical; set-up: PLC5 protein extract was incubated with anti-SHP-1 antibody in immunoprecipitation buffer overnight; endogenous in cells; host or cells: PLC5 (PLC/PRF/5)
Experimental: PLC5 protein extract was incubated with anti-SHP-1 antibody in immunoprecipitation buffer overnight. Protein G Sepharose 4 Fast flow (GE Healthcare Bio-Science) was added to each sample, followed by incubation for 3 hours at 4° C. with rotation. […] RediPlate 96 EnzChek Tyrosine Phosphatase Assay kit (R-22067) was used for SHP-1 activity assay (Molecular Probes).

[13] = target: T3, SHP-1; experiment: Phosphatase activity of recombinant SHP-1; format: biochemical; conditions: 25 ng protein, 30 minutes
Experimental: RediPlate 96 EnzChek Tyrosine Phosphatase Assay kit (R-22067) was used for SHP-1 activity assay (Molecular Probes). Recombinant SHP-1 protein (25 ng) was incubated with either SC-43 or SC-40 at the indicated dose for 30 minutes and then analyzed by SHP-1 phosphatase activity.

[14] = tested on: PLC5 tumors; experiment: Subcutaneous PLC5 xenograft; format: in vivo, mice; conditions: 10 mg/kg/day orally
Experimental: All experimental procedures using these mice were done in accordance with protocols approved by the Institutional Laboratory Animal Care and Use Committee of National Taiwan University. Each mouse was inoculated s.c. in the dorsal flank with 1×10^6 PLC5 cells suspended in 0.1 mL of serum-free medium containing 50% Matrigel (BD Biosciences). When tumors reached 100 to 200 mm3, mice received SC-40 tosylate (10 or 20 mg/kg) orally once daily. Tumors were measured weekly using calipers, and their volumes were calculated using the following standard formula: width×length×height×0.52.
(§2) We established an HCC orthotopic model using luc2-expressed PLC5 cells inoculated into liver of nude mice. […] To further correlate the molecular mechanism with the anticancer effect in vivo, p-STAT3 and SHP-1 activity in tumor extract from vehicle- and SC-treated mice was analyzed by immunoblotting. […] The pharmacokinetics of SC-43 was determined (FIG. 25E).

[15] = tested on: PLC5/luc2 orthotopic tumors; experiment: HCC orthotopic model with PLC5/luc2 cells; format: in vivo, mice; conditions: 10 mg/kg/day orally
Experimental: All experimental procedures using these mice were done in accordance with protocols approved by the Institutional Laboratory Animal Care and Use Committee of National Taiwan University. Each mouse was inoculated within liver […] with 1×10^4 PLC5/luc cells suspended in 0.1 mL of serum-free medium containing 50% Matrigel (BD Biosciences). […] Tumor growth was monitored by non-invasive in vivo imaging system (IVIS) image system twice weekly.
as §2

[16] = Pharmacokinetics of SC-43; format: in vivo; conditions: compared with literature report for sorafenib
Experimental: as §2

[17] = tested on: HCC-bearing mice; experiment: Antitumor effect of SC-43 in HCC-bearing mice; conditions: mouse, in vivo
Experimental: SHP-1/STAT3-related signaling pathway acts as a vital target for the anti-tumor effect of SC-43. See FIG. 22 (A) the cytotoxicity of SC-43 in HCC cells, (B) the antitumor effect of SC-43 in HCC-bearing mice, (C) the activity of SHP-1 induced by SC-43, and (D) Western blot analysis of p-STAT3 and STAT3 in HCC cells treated by SC-43 (10 μM and 20 μM).

T3 sequence (P29350 whole entry): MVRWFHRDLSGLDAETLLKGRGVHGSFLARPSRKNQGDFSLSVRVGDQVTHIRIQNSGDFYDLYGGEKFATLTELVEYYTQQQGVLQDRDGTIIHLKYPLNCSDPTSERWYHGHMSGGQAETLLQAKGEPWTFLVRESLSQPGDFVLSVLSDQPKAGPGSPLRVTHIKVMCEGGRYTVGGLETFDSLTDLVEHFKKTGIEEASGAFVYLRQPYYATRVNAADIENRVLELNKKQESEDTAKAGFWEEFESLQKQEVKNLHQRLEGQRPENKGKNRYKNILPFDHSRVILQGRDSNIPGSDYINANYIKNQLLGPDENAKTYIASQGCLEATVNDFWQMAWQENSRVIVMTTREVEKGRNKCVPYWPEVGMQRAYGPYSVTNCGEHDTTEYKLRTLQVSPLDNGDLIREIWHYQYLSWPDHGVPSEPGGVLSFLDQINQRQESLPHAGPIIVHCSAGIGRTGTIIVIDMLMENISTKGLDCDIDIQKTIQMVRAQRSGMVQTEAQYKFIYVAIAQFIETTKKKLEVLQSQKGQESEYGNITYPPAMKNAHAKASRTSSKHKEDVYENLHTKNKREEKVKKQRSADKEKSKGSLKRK
T1 sequence (P04049 whole entry): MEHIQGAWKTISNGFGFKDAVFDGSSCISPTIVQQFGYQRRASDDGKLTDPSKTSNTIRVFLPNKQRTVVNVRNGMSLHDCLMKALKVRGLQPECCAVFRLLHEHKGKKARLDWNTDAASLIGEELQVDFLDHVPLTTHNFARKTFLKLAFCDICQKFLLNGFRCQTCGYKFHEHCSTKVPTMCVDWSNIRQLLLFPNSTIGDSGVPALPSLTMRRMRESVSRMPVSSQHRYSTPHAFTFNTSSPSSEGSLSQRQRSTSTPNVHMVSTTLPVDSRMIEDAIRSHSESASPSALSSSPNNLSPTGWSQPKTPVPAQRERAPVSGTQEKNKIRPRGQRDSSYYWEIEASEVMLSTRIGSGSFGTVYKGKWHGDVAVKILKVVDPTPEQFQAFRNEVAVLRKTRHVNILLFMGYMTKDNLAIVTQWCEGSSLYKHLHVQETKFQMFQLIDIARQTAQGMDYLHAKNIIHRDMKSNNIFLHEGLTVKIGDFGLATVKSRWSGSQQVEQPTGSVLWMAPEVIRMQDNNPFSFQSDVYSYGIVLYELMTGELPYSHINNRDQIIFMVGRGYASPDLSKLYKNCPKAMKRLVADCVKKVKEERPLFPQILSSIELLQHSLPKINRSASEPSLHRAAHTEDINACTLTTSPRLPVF
T2 sequence (O60674 whole entry): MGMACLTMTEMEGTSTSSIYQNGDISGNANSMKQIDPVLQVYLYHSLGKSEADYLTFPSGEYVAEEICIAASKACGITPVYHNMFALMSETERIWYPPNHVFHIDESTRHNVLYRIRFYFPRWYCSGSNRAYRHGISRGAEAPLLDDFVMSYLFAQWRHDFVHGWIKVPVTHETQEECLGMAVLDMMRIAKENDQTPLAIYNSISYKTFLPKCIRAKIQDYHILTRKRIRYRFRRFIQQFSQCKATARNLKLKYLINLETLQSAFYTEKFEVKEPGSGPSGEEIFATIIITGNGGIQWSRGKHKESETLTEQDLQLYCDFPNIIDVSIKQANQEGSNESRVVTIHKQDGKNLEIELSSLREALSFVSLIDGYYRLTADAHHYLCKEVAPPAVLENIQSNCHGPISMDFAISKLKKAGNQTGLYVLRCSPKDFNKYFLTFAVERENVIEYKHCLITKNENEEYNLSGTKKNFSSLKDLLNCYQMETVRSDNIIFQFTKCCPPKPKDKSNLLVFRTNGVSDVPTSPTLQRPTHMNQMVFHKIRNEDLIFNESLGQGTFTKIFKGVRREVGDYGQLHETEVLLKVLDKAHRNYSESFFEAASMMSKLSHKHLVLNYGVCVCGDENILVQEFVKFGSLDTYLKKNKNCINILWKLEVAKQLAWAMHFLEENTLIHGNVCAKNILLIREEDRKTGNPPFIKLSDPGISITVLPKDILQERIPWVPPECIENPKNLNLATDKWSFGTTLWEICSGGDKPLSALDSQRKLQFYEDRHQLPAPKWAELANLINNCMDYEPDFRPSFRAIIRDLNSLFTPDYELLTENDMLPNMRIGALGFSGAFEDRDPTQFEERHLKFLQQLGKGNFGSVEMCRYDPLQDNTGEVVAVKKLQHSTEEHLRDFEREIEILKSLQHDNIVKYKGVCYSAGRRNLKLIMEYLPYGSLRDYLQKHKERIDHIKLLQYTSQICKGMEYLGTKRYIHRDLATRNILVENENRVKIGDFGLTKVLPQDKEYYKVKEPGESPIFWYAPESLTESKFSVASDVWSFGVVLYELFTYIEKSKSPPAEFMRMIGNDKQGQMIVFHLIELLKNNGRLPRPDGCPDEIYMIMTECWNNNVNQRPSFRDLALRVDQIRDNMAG

N#Cc1ccc(Oc2ccc(NC(=O)Nc3ccc(Cl)c(C(F)(F)F)c3)cc2)cc1 [Compound 1, 1-(4-Chloro-3-(trifluoromethyl)phenyl)-3-(4-(4-cyanophenoxyl)phenyl)urea]
IC50 [1]: 7.5 µM | Raf-1 activity versus vehicle control ([2]; PLC5 cells (FIG. 3)): showed the same Raf-1 activity as vehicle control | inhibition of Raf-1 activity ([2]; Raf-1 immunoprecipitated from PLC5 or Hep3B cell extracts, 10 μM, 24 h): did not inhibit the activity of Raf-1 | P-STAT3 state by ELISA ([3]; PLC5 cells, IL-6 stimulated, 10 uM, 24 h): showed a high degree of dephosphorylation of STAT3; also recorded: exhibited the same level of downregulation of P-STAT3 as sorafenib did | activity of p-STAT3 by STAT3 ELISA ([3]; Sk-Hep1 cells pre-treated with IL-6, 24 h): decreased the activity of p-STAT3 significantly | p-STAT3 and STAT3-related proteins (Western blot) [4]: down-regulated p-STAT3 at Y705 residue and suppressed Mc1-1 and cyclin D1 | kinase activity of JAK2 [5]: neither sorafenib nor SC-1 altered the kinase activity of JAK2 | tumor size relative to vehicle-treated mice at the end of treatment ([6]; Huh-7 xenograft, 10 mg/kg p.o. once daily): 25% | SHP-1 activity in Huh-7 tumors ([6]; tumor extract): induced significant rising of SHP-1 activity | p-STAT3 in Huh-7 tumors ([6]; tumor extract, Western blot): down regulated p-STAT3 | viability of HCC cells / cytotoxicity [7]: decreased the viability of various HCC cells | apoptosis (sub-G1) [8]: showed a significant increase in sub-G1 phase population | transcription activity of STAT3 (Luc reporter) [9]: transcription activity of STAT3 was significantly decreased | growth of breast cancer and leukemia cell lines [10]: effective in inhibiting the growth of cancer cells | expression of p-VEGFR2 (Tyr1175) [11]: did not have significant effect | activity of SHP-1 in SHP-1 immunoprecipitates incubated with drug ([12]; PLC5 lysates, incubated 6 hours): increase the activity of SHP-1

N#Cc1ccc(Oc2cccc(NC(=O)Nc3ccc(Cl)c(C(F)(F)F)c3)c2)cc1 [SC-43, 1-(3-(4-cyanophenoxyl)phenyl)-3-(4-chloro-3-(trifluoromethyl)phenyl)urea]
p-STAT3 / STAT3 activity (phospho-STAT3 ELISA and luciferase reporter) ([3]; PLC5 cells): induce strong inhibition of p-STAT3 activity; also recorded: showed more potent inhibition of the p-STAT3-related signaling pathway | p-STAT3 and STAT3-related proteins (Western blot) [4]: down-regulates phospho-STAT3-related signaling pathway in HCC; also recorded: shows better inhibition of p-STAT3-related signaling pathway than sorafenib; also recorded: revealed submicromolar inactivation of p-STAT3, relative to sorafenib | phosphatase activity of recombinant SHP-1 [13]: increase phosphatase activity of SHP-1 in vitro | viability of HCC cells / cytotoxicity ([7]; 72 h): showed lower 50% inhibitory concentration, compared to sorafenib | IC50 ([7]; read-out: IC50, cytotoxicity in HCC cells): ~0.5 µM | apoptosis (sub-G1) [8]: show significant anti-cancer effects in HCC cells | apoptosis in sorafenib-resistant cells ([8]; sorafenib-resistant HCC cells (SR1)): resulted in significant apoptosis in sorafenib-resistant cells at submicromolar concentrations | p-STAT3 and SHP-1 activity in PLC5 tumor lysate [14]: Down-regulation of p-STAT3 and elevation of SHP-1 activity | average tumor size versus control mice at the end of treatment ([14]; SC PLC5 tumor-bearing mice): less than half that of control mice | anti-HCC effect and survival in orthotopic model [15]: had an evident anti-HCC effect and significant survival benefit | stability in vivo (pharmacokinetics) [16]: exhibited a longer period of stability in vivo than that reported for sorafenib | growth of breast cancer and leukemia cell lines [10]: effective in inhibiting the growth of cancer cells | tumor growth inhibition in HCC-bearing mice [17]: significantly causes tumor growth inhibition in HCC-bearing mice | phosphatase activity of SHP-1 in vitro ([12]; SHP-1-containing PLC5 extract, 10 or 100 nmol/L, 30 min, 4° C.): increase phosphatase activity of SHP-1 in vitro

From patent US9090617B1, “Agonists of Src homology-2 containing protein tyrosine phosphatase-1 and treatment methods using the same” (National Taiwan University, priority 2011, dated 2015)
